For one data set, the system named is HIV-1 strains. The conditions noted are these: integrase strand transfer inhibitor; antiviral activity against a broad range of HIV-1 strains; cited from earlier work.
The conditions of data set [1]: cited from earlier work.
A short description of data set [2]: Cabotegravir population pharmacokinetic (PopPK) model, CAB 200 mg/mL IM injections. On the set-up: species or system human. As for the experimental part: In a first set of simulations, a cabotegravir population pharmacokinetic (PopPK) model was built based on PK data following cabotegravir (CAB) 200 mg/mL intramuscular (IM) injections collected in 16 historical studies (Population pharmacokinetics of cabotegravir following administration of oral tablet and long-acting intramuscular injection in adult HIV-1-infected and uninfected subjects. Han K, Baker M, Lovern M, Paul P, Xiong Y, Patel P, Moore K P, Seal C S, Cutrell A G, D'Amico R D, Benn P D, Landovitz R J, Marzinke M A, Spreen W R, Ford S L. Br J Clin Pharmacol. 2022 October;88 (10): 4607-4622. doi: 10.1111/bcp. 15439. Epub 2022 Jul. 4. PMID: 35695476) and updated based on PK data from 19 studies: LAI116585, LAI117010, LAI117011, LAI117020, 201741, 201479, 201480, 205696, LAI116482 (LATTE), LAI115428, LAI116815, 200056 (LATTE-2), 201120 (ECLAIR), 201103 (HPTN077), 201584 (FLAIR), 201585 (ATLAS), 207966 (ATLAS-2M), 201738 (HPTN 083) and 201739 (HPTN 084). A total of 34,850 CAB plasma concentrations collected at various time points from 2,694 participants were used to build this PopPK model.

Structures are written as SMILES. Read-outs that look alike come from different tables or passages of the source.

Turning to `C[C@H]1CO[C@@H]2Cn3cc(C(=O)NCc4ccc(F)cc4F)c(=O)c(O)c3C(=O)N12` [Cabotegravir, (3S, 11aR)-N-((2,4-difluorophenyl)methyl)-6-hydroxy-3-methyl-5,7-dioxo-2,3,5,7,11,11a-hexahydro (1,3) oxazolo (3,2-a)pyrido (1,2-d) pyrazine-8-carboxamide], the potency result with HIV-1 strains is “subnanomolar”. Besides, the “10th percentile of Ctau observed” value in data set [1] (Phase 3 study 201738 (HPTN 083), people assigned male at birth) is 1.05 µg/mL. Also, the “10th percentile of Ctau observed” value in data set [1] (Phase 3 study 201739 (HPTN 084), people assigned female at birth) was 1.39 µg/mL. In addition, in data set [2], the “Apparent central clearance (CL/F), higher in current smokers” value is 16.4%; the “KA2 versus BMI” value was “decreased with increasing BMI”; the “KA2 versus needle length” value is reported as “lower with longer needle length”. Further, the “Long-acting intramuscular gluteal absorption rate constant (KA2), lower in people assigned female at birth than male at birth” value in data set [2] (CAB 200 mg/mL IM injections) was determined as 46.5%. For the same compound, the “KA2, higher in study 201120 (ECLAIR) than other studies” value in data set [2] (after adjusting for all covariates) was found to be 22.8%. The “KA2 versus split injections” value in data set [2] (people assigned female at birth) is given as “not associated with split injections”. The “KA2, higher if the injection was split” value in data set [2] (people assigned male at birth) is given as 50.8%.

Values taken from patent US20260284042A1, “DOSING REGIMEN” (ViiV Healthcare UK (No.3) Limited, priority 2024, published 2026).
